Experimental findings from ChEMBL document CHEMBL5291721, “A preclinical secondary pharmacology resource illuminates target-adverse drug reaction associations of marketed drugs” (Nat Commun, 2023) are described below.

Experiment [1] deals with Sodium-dependent noradrenaline transporter (Homo sapiens, UniProt P23975).
Experiment [2] concerns the target T1, Progesterone receptor (Homo sapiens, UniProt P06401).
T1 sequence (P06401 whole entry): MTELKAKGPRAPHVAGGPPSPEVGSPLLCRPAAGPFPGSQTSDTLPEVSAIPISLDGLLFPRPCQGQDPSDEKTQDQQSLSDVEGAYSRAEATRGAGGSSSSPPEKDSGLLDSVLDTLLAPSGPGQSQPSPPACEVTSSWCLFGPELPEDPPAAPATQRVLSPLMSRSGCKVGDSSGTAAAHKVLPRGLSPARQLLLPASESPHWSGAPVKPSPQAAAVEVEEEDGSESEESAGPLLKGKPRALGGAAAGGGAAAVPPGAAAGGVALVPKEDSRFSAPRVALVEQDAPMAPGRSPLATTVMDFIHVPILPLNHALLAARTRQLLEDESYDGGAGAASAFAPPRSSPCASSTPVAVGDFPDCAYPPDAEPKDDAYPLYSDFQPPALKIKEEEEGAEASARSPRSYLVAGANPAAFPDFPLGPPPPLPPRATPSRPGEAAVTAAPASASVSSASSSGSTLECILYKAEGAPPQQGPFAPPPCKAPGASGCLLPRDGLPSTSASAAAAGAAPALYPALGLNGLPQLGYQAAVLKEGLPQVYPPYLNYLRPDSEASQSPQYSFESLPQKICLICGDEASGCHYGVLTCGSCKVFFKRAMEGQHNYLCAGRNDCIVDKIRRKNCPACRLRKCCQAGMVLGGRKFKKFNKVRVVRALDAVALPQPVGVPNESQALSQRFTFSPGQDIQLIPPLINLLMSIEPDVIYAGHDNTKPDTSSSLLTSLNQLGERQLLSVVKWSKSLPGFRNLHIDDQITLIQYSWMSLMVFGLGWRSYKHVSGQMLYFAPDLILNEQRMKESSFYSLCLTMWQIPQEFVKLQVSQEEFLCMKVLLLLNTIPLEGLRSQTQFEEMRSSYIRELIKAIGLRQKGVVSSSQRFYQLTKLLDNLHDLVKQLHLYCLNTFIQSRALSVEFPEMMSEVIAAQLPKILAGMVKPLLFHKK
In kind it is functional.

For experiment [3], the target named is T2, Type-1 angiotensin II receptor (Homo sapiens, UniProt P30556).
T2 sequence (P30556 whole entry): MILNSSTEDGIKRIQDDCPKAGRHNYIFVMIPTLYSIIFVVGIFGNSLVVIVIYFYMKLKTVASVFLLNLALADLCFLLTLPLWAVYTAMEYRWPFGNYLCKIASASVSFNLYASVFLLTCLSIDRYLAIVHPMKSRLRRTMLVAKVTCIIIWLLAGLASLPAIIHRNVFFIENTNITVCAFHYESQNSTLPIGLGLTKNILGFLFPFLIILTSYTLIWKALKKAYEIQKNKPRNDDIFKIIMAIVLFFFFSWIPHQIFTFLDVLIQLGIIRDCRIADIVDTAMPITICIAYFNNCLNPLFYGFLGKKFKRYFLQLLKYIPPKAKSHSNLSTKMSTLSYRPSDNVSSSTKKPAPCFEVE

The target in experiment [4] is D(1A) dopamine receptor (Homo sapiens, UniProt P21728). Type of experiment: functional, cell-based.
Experiment [5] has as its target Neuronal acetylcholine receptor subunit alpha-4 (Homo sapiens, UniProt P43681).
Experiment [6] addresses T3, Prostaglandin G/H synthase 1 (Rattus norvegicus, UniProt Q63921).
T3 sequence (Q63921 whole entry): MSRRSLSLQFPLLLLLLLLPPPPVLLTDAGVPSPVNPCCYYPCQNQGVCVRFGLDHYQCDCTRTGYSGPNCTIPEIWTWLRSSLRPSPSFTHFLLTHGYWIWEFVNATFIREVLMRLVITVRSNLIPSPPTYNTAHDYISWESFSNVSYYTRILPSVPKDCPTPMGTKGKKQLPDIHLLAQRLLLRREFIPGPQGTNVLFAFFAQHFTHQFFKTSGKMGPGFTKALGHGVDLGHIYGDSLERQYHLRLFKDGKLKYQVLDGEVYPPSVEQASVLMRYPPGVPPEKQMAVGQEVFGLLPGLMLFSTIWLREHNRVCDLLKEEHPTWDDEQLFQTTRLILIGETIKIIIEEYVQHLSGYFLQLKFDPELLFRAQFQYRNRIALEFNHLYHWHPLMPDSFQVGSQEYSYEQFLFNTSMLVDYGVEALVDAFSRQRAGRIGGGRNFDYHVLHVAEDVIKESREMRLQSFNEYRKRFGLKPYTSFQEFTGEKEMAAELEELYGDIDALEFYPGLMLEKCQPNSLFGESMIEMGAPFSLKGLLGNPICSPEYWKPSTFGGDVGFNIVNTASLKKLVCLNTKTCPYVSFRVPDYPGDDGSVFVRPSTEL
In kind it is functional.

Experiment [7] deals with T4, Cholecystokinin receptor type A (Homo sapiens, UniProt P32238).
T4 sequence (P32238 whole entry): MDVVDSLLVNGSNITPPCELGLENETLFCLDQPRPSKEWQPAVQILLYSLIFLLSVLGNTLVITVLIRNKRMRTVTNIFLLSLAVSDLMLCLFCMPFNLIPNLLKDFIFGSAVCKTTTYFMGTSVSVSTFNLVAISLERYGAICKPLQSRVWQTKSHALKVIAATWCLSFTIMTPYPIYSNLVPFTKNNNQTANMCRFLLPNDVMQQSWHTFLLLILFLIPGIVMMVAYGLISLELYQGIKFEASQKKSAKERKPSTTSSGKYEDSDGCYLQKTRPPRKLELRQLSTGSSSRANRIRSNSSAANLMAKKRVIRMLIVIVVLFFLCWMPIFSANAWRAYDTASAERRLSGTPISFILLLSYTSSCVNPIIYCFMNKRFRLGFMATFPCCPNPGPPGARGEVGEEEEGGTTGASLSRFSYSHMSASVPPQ

The target of experiment [8] is Histamine H2 receptor (Homo sapiens, UniProt P25021). In kind it is functional, cell-based.
Experiment [9] deals with T5, Cannabinoid receptor 1 (Homo sapiens, UniProt P21554). Type of experiment: functional, cell-based.
Experiment [10] addresses Glutamate receptor ionotropic, NMDA 1 (Rattus norvegicus, UniProt P35439).
For experiment [11], the target named is Gamma-aminobutyric acid receptor subunit alpha-1 (Rattus norvegicus, UniProt P62813). Type of experiment: functional.
For experiment [12], the target named is Voltage-dependent L-type calcium channel subunit alpha-1C (Rattus norvegicus, UniProt P22002). Type of experiment: functional.
For experiment [13], the target named is Adenosine receptor A2a (Homo sapiens, UniProt P29274).
For experiment [14], the target named is T5, Cannabinoid receptor 1. In kind it is functional, cell-based. This is another data set of the same source.
Also: assay procedure not described here.

T5 sequence (P21554 whole entry): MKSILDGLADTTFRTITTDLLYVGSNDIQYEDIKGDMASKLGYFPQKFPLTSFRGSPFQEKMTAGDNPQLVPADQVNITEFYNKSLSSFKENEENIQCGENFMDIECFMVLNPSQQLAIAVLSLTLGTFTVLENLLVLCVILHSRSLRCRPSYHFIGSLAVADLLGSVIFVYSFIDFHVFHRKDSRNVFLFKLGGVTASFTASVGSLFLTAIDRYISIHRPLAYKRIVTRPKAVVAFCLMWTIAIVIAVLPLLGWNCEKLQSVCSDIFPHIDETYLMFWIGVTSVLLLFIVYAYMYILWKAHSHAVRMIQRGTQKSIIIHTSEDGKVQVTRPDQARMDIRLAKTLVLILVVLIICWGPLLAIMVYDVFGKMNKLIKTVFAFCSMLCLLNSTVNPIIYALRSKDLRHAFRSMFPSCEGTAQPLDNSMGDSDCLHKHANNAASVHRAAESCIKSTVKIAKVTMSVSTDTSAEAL
Sequence of Voltage-dependent L-type calcium channel subunit alpha-1C (P22002 whole entry): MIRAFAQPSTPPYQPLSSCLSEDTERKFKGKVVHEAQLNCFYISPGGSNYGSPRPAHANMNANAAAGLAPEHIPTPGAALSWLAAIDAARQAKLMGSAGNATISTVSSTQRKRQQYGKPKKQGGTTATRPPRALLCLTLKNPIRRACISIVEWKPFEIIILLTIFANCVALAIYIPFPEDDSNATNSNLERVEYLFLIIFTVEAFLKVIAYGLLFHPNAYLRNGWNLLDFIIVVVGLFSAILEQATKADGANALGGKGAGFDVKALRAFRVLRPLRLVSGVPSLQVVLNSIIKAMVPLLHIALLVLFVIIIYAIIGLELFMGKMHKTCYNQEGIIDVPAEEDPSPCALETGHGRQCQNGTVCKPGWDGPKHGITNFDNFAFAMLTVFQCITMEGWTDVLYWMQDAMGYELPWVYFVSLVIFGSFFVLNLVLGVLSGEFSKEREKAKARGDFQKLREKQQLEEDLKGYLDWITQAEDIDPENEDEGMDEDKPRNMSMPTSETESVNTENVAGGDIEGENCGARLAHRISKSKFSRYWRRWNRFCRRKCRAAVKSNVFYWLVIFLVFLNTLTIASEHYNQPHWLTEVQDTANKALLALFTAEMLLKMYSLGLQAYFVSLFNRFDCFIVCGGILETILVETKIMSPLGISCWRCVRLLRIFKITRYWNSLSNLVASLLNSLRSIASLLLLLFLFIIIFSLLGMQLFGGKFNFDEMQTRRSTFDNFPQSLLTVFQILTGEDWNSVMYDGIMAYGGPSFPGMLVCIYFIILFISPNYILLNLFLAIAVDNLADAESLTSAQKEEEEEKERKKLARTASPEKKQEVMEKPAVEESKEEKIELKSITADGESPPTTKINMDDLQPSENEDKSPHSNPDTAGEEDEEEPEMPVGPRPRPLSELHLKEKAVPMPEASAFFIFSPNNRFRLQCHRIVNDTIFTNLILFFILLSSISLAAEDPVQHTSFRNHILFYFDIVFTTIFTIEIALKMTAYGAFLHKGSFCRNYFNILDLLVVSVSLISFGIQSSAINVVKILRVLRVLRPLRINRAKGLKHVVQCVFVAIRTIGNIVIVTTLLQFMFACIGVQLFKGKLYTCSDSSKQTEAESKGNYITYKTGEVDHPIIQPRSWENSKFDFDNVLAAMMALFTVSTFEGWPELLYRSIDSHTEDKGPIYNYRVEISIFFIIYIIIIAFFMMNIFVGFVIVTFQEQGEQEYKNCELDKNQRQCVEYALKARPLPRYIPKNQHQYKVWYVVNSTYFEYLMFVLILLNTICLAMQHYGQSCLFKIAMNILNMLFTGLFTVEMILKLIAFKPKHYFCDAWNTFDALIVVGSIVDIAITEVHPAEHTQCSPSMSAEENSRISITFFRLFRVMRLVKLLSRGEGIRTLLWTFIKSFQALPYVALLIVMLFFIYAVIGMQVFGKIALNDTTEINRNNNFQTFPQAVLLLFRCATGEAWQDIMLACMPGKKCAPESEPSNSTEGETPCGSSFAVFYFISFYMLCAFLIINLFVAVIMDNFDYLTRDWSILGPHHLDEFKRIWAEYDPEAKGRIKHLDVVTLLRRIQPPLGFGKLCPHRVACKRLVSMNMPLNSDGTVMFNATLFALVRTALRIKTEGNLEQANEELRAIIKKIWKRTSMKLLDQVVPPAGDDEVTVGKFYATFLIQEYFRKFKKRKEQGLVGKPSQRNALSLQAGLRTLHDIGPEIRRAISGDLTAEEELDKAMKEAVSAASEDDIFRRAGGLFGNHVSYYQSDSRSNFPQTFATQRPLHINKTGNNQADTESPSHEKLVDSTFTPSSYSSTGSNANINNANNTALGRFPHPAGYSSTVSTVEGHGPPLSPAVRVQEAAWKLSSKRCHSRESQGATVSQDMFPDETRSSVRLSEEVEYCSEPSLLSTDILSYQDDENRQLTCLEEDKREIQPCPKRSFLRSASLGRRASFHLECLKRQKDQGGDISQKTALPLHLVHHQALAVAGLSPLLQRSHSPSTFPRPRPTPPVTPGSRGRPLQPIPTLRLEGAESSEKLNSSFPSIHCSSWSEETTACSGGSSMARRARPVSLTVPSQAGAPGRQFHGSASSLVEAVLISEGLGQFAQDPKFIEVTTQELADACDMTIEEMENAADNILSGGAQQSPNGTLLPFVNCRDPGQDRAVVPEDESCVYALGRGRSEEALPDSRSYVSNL
Sequence of D(1A) dopamine receptor (P21728 whole entry): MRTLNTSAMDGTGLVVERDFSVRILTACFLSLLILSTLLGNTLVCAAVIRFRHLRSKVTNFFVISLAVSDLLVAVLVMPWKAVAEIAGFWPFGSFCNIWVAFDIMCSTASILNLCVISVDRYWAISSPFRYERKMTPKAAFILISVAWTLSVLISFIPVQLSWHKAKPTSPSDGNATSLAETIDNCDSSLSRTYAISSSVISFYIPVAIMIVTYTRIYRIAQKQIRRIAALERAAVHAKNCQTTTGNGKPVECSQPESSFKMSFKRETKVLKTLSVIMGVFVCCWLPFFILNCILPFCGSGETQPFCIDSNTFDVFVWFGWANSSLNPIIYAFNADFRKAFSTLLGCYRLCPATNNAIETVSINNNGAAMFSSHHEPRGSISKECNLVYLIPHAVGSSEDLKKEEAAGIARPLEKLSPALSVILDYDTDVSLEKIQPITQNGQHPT
Sequence of Sodium-dependent noradrenaline transporter (P23975 whole entry): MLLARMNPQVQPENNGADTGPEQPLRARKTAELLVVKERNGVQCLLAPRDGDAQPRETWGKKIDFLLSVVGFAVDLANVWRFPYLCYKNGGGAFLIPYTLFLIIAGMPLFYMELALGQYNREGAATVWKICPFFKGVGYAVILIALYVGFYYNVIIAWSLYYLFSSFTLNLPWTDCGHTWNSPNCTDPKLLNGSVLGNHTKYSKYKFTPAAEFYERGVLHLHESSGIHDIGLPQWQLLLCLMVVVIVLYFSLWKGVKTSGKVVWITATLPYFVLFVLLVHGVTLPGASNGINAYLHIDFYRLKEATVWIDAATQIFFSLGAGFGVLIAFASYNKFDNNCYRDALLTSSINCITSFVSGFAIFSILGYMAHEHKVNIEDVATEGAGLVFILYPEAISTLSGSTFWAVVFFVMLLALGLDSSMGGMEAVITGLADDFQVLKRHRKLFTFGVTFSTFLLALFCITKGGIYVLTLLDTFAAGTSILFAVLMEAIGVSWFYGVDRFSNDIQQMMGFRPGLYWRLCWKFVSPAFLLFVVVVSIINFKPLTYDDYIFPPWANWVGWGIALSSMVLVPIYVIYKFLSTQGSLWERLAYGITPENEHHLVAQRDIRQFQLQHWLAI
Sequence of Neuronal acetylcholine receptor subunit alpha-4 (P43681 whole entry): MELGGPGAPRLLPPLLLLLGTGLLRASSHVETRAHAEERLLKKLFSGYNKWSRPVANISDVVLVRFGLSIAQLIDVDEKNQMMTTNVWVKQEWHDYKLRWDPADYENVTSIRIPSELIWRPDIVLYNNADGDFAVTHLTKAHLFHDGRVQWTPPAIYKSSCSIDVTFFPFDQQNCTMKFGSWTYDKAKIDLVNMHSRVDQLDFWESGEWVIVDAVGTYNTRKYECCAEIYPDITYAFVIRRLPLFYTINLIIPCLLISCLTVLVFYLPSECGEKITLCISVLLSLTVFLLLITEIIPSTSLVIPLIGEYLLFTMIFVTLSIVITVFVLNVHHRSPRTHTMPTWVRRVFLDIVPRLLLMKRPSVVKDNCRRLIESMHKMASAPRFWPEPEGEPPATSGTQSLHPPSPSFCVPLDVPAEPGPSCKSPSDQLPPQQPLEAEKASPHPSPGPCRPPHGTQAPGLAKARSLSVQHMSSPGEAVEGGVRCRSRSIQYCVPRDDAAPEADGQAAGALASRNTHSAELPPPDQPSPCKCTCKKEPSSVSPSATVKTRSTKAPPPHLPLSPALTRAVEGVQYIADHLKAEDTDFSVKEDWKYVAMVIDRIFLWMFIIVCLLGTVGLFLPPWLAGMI
Sequence of Gamma-aminobutyric acid receptor subunit alpha-1 (P62813 whole entry): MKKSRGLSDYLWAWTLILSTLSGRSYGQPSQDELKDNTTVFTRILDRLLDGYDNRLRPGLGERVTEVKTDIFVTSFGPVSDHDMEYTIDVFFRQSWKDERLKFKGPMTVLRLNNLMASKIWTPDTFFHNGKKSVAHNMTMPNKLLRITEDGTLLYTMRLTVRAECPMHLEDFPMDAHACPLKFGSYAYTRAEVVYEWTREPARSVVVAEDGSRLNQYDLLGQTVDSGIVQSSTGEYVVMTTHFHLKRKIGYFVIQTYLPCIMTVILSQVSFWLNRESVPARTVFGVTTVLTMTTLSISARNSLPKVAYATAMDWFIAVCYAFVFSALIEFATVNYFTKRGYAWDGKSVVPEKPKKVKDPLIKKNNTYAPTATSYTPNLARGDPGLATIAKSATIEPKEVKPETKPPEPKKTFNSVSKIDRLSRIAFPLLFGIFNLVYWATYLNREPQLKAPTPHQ

For orientation: AC50 means the concentration at which the activity in the assay is half-maximal. For `CC(C)(Oc1ccc(C2CC2(Cl)Cl)cc1)C(=O)O` (stereo not drawn) [CIPROFIBRATE], the AC50 in experiment [1], in [2], in experiment [3], in experiment [4], in experiment [5] and in experiment [6] was more than 30 µM each time. The AC50 in experiment [7], in [8], in experiment [9], in [10], in experiment [11] and in experiment [12] was more than 30 µM each time. The AC50 in [13] and in experiment [14] was more than 30 µM throughout.
Take `O=C(OCCN1CCOCC1)c1cccnc1Nc1cccc(C(F)(F)F)c1` [MORNIFLUMATE]: the concentration at half-maximal activity (AC50) is 17 µM in experiment [1]; more than 30 µM in experiment [2]; more than 30 µM in experiment [3]; more than 30 µM in experiment [4]; more than 30 µM in experiment [5]; more than 30 µM in experiment [6]. Also, the concentration at half-maximal activity (AC50) in [7], in experiment [8], in experiment [9], in experiment [10], in [11] and in [12] was more than 30 µM each time. The AC50 in [13] and in experiment [14] was more than 30 µM in each case.
